Assay results: PubChem BioAssay (NCI)
Several values for one entry are separate records, joined by “and”; a condition that tells them apart may be missing. Equal values may be shown once.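 Briefly, cells in 96-well plates were exposed to five compound concentrations for 48 h, and endpoints were estimated by linear interpolation. Abbreviation: GI50, concentration required for 50% inhibition of growth. TGI is the concentration that stops growth completely.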

Tests used:
Test in all cases: growth of human tumour cells (NCI), 48 h
HCC-2998 colon = test system: HCC-2998 colon
SF-539 CNS = test system: SF-539 CNS
T-47D breast = test system: T-47D breast
OVCAR-5 ovarian = test system: OVCAR-5 ovarian
786-0 renal = test system: 786-0 renal
MDA-MB-435 = test system: MDA-MB-435
KM12 colon = test system: KM12 colon
NCI/ADR-RES ovarian = test system: NCI/ADR-RES ovarian
M14 melanoma = test system: M14 melanoma
SK-MEL-5 melanoma = test system: SK-MEL-5 melanoma
RXF 393 renal = test system: RXF 393 renal
SF-295 CNS = test system: SF-295 CNS
OVCAR-8 ovarian = test system: OVCAR-8 ovarian
A549 NSCLC = test system: A549 NSCLC
HS 578T breast = test system: HS 578T breast
SF-268 CNS = test system: SF-268 CNS
SNB-19 CNS = test system: SNB-19 CNS
DU-145 prostate = test system: DU-145 prostate
NCI-H460 lung = test system: NCI-H460 lung
BT-549 breast = test system: BT-549 breast
NCI-H23 lung = test system: NCI-H23 lung
HOP-92 NSCLC = test system: HOP-92 NSCLC
A498 renal = test system: A498 renal
U251 CNS = test system: U251 CNS
IGROV1 ovarian = test system: IGROV1 ovarian
MALME-3M melanoma = test system: MALME-3M melanoma
HL-60(TB) leukemia = test system: HL-60(TB) leukemia
NCI-H226 lung = test system: NCI-H226 lung
CAKI-1 renal = test system: CAKI-1 renal
MOLT-4 leukemia = test system: MOLT-4 leukemia
HT29 colon = test system: HT29 colon
SK-OV-3 ovarian = test system: SK-OV-3 ovarian
SN12C renal = test system: SN12C renal
MDA-N = test system: MDA-N
SK-MEL-2 melanoma = test system: SK-MEL-2 melanoma
NCI-H522 lung = test system: NCI-H522 lung
RPMI-8226 leukemia = test system: RPMI-8226 leukemia
HCT-116 colon = test system: HCT-116 colon
UACC-257 melanoma = test system: UACC-257 melanoma
UO-31 renal = test system: UO-31 renal
LOX IMVI melanoma = test system: LOX IMVI melanoma
OVCAR-3 ovarian = test system: OVCAR-3 ovarian
SNB-75 CNS = test system: SNB-75 CNS
SW-620 colon = test system: SW-620 colon
PC-3 prostate = test system: PC-3 prostate
TK-10 renal = test system: TK-10 renal
UACC-62 melanoma = test system: UACC-62 melanoma
HOP-62 NSCLC = test system: HOP-62 NSCLC
MDA-MB-231 breast = test system: MDA-MB-231 breast
SK-MEL-28 melanoma = test system: SK-MEL-28 melanoma
EKVX NSCLC = test system: EKVX NSCLC
OVCAR-4 ovarian = test system: OVCAR-4 ovarian
K-562 leukemia = test system: K-562 leukemia
CCRF-CEM leukemia = test system: CCRF-CEM leukemia
COLO 205 colon = test system: COLO 205 colon
HCT-15 colon = test system: HCT-15 colon

## COC1(OC)C[C@H](C)[C@@]23O[C@]24c2cc(O)c5c(c2N[C@H]3C#C/C=C\C#C[C@]14O)C(=O)c1ccccc1C5=O
HCC-2998 colon
  GI50: 0.0197 µM
  TGI: 0.0855 µM and 0.0544 µM
SF-539 CNS
  GI50: < 0.001 µM
  TGI: 0.00304 µM
T-47D breast
  GI50: 0.0104 µM
  TGI: 0.0774 µM and 0.455 µM
OVCAR-5 ovarian
  GI50: 0.0206 µM
  TGI: 0.169 µM and 0.111 µM
786-0 renal
  TGI: 0.0245 µM
MDA-MB-435
  GI50: 0.0184 µM
  TGI: 0.139 µM and 0.175 µM
KM12 colon
  GI50: 0.0138 µM and 0.0249 µM
  TGI: 0.0847 µM and 0.108 µM
NCI/ADR-RES ovarian
  GI50: 0.00223 µM
M14 melanoma
  GI50: 0.00194 µM
  TGI: 0.0176 µM and 0.0111 µM
SK-MEL-5 melanoma
  GI50: 0.00172 µM
  TGI: 0.0222 µM and 0.00891 µM
RXF 393 renal
  GI50: 0.00163 µM
  TGI: 0.0256 µM and 0.0186 µM
SF-295 CNS
  TGI: 0.0076 µM
OVCAR-8 ovarian
  GI50: 0.0043 µM
  TGI: 0.048 µM and 0.0756 µM
A549 NSCLC
  GI50: < 0.001 µM
  TGI: 0.0489 µM and 0.0352 µM
HS 578T breast
  GI50: 0.0847 µM
  TGI: 0.516 µM and 3.6 µM
SF-268 CNS
  GI50: 0.00193 µM
SNB-19 CNS
  TGI: 0.225 µM
DU-145 prostate
  GI50: 0.00164 µM
  TGI: 0.00686 µM and 0.048 µM
NCI-H460 lung
  GI50: 0.005 µM
BT-549 breast
  TGI: 0.125 µM
NCI-H23 lung
  TGI: 0.0229 µM
HOP-92 NSCLC
  TGI: 0.00982 µM
A498 renal
  GI50: 0.005 µM
  TGI: 0.00964 µM and 0.0459 µM
U251 CNS
  GI50: 0.00251 µM
  TGI: 0.0421 µM and 0.0705 µM
IGROV1 ovarian
  TGI: 0.16 µM
MALME-3M melanoma
  GI50: < 0.001 µM
HL-60(TB) leukemia
  GI50: < 0.001 µM
  TGI: 0.00105 µM
NCI-H226 lung
  TGI: 0.00755 µM
CAKI-1 renal
  GI50: < 0.001 µM
  TGI: 0.00561 µM and 0.00653 µM
MOLT-4 leukemia
  GI50: < 0.001 µM
  TGI: < 0.001 µM
HT29 colon
  GI50: 0.0226 µM
SK-OV-3 ovarian
  TGI: 0.0217 µM
SN12C renal
  TGI: 0.00979 µM
MDA-N
  GI50: 0.00836 µM
  TGI: 0.139 µM and 0.108 µM
SK-MEL-2 melanoma
  GI50: 0.359 µM and 0.0593 µM
  TGI: 0.355 µM
NCI-H522 lung
  GI50: 0.0088 µM
  TGI: 0.0664 µM and 0.0606 µM
RPMI-8226 leukemia
  GI50: 0.0015 µM
  TGI: 0.0604 µM and 0.0392 µM
HCT-116 colon
  TGI: 0.148 µM
UACC-257 melanoma
  GI50: 0.00624 µM
  TGI: 0.0789 µM and 0.0505 µM
UO-31 renal
  TGI: 0.0176 µM
LOX IMVI melanoma
  TGI: 0.049 µM
OVCAR-3 ovarian
  TGI: 0.77 µM
SNB-75 CNS
  GI50: 0.0028 µM
  TGI: 0.00927 µM and 0.0318 µM
SW-620 colon
  GI50: 0.00373 µM
  TGI: 0.167 µM and 0.215 µM
PC-3 prostate
  GI50: 0.163 µM
  TGI: 0.182 µM
TK-10 renal
  TGI: 0.401 µM
UACC-62 melanoma
  GI50: 0.00204 µM
  TGI: 0.0359 µM and 0.0324 µM
HOP-62 NSCLC
  GI50: < 0.001 µM
  TGI: 0.00216 µM and 0.0173 µM
MDA-MB-231 breast
  GI50: 0.0199 µM
SK-MEL-28 melanoma
  GI50: 0.0273 µM
  TGI: 0.234 µM and 0.087 µM
EKVX NSCLC
  GI50: 0.0527 µM
  TGI: 0.213 µM and 0.202 µM
OVCAR-4 ovarian
  TGI: 4.2 µM
K-562 leukemia
  GI50: 0.00399 µM
  TGI: 0.101 µM and 0.201 µM
CCRF-CEM leukemia
  GI50: 0.005 µM
  TGI: 0.00572 µM and 0.0539 µM
COLO 205 colon
  TGI: 0.0369 µM
HCT-15 colon
  GI50: 0.0118 µM
  TGI: 0.24 µM and 0.543 µM
